Legend:
LNCaP-abl cells [1] = assay: Cell proliferation assay, LNCaP-abl cells; type: cell-based; settings: 72 hours
in vitro [2] = settings: liver microsomes
LNCaP-abl cells [3] = assay: Clonogenic assay, LNCaP-abl cells; type: cell-based; settings: 10 μM, 10 days
UBE2C = UBE2C mRNA expression in LNCaP-95 cells; type: cell-based; settings: 10 μM, 48 hours
in vitro [4] = settings: rat, liver microsomes

C#C[C@]1(O)CC[C@H]2[C@@H]3CCC4=CC(=O)CC[C@]4(C)[C@H]3CC[C@@]21C [ethisterone]
EC50 (concentration required to inhibit the proliferation by 50%) (LNCaP-abl cells [1]; highest concentration tested 100 μM): failed to reach 50% inhibition at the maximal concentration tested

CCOc1ccc(NC(C)=O)cc1 [phenacetin]
half-life at 1.09 µM (in vitro [2]): ~1.33 h

CNC(=O)c1ccc(N2C(=S)N(c3ccc(C#N)c(C(F)(F)F)c3)C(=O)C2(C)C)cc1F [enzalutamide]
effect on colony formation (LNCaP-abl cells [3]): Neither enzalutamide nor ARN509 could effectively prevent colony formation
UBE2C mRNA expression (UBE2C): significantly increased UBE2C mRNA expression

CC(C)NCC(O)COc1cccc2ccccc12 (stereo not shown) [Propranolol, propranolol]
remaining at 1 h, 1.09 µM (in vitro [4]): 58.7%

CNC(=O)c1ccc(N2C(=S)N(c3cnc(C#N)c(C(F)(F)F)c3)C(=O)C23CCC3)cc1F [ARN509]
effect on LNCaP-abl cellular proliferation (LNCaP-abl cells [1]; 10 μM): not growth inhibited
effect on colony formation (LNCaP-abl cells [3]): Neither enzalutamide nor ARN509 could effectively prevent colony formation
